Results: patent US7045532B2 (Millennium Pharmaceuticals, Inc., priority 1999, dated 2006)
Read-outs that look alike come from different tables or passages of the source.

How the values were obtained:
ACE-2 [1] = molecular target: T1, ACE-2 (Homo sapiens, UniProt Q9BYF1); experiment: ACE-2 Competitive Substrate Assay (ACS Assay); format: biochemical
T1 construct: a stop codon inserted after the serine immediately preceding the transmembrane domain; made in house; host or cells: CHO K1 cells (transient transfection, purified from conditioned medium)

ACE-2 [2] = molecular target: ACE-2 (Rattus norvegicus, UniProt Q5EGZ1); experiment: ACE-2 Competitive Substrate Assay, rat ACE-2; format: biochemical; settings: Ki class, compounds tested in 5% DMSO
ACE (Sigma, A2580) = molecular target: T2, ACE (Sigma, A2580) (Sus scrofa, UniProt F1RRW5); experiment: ACE enzymatic activity assay; format: biochemical, porcine; settings: Ki class, compounds tested in 5% DMSO
T2 construct: ACE from porcine kidney; purchased Sigma A2580; host or cells: porcine kidney
T2 sequence (F1RRW5 34-1309): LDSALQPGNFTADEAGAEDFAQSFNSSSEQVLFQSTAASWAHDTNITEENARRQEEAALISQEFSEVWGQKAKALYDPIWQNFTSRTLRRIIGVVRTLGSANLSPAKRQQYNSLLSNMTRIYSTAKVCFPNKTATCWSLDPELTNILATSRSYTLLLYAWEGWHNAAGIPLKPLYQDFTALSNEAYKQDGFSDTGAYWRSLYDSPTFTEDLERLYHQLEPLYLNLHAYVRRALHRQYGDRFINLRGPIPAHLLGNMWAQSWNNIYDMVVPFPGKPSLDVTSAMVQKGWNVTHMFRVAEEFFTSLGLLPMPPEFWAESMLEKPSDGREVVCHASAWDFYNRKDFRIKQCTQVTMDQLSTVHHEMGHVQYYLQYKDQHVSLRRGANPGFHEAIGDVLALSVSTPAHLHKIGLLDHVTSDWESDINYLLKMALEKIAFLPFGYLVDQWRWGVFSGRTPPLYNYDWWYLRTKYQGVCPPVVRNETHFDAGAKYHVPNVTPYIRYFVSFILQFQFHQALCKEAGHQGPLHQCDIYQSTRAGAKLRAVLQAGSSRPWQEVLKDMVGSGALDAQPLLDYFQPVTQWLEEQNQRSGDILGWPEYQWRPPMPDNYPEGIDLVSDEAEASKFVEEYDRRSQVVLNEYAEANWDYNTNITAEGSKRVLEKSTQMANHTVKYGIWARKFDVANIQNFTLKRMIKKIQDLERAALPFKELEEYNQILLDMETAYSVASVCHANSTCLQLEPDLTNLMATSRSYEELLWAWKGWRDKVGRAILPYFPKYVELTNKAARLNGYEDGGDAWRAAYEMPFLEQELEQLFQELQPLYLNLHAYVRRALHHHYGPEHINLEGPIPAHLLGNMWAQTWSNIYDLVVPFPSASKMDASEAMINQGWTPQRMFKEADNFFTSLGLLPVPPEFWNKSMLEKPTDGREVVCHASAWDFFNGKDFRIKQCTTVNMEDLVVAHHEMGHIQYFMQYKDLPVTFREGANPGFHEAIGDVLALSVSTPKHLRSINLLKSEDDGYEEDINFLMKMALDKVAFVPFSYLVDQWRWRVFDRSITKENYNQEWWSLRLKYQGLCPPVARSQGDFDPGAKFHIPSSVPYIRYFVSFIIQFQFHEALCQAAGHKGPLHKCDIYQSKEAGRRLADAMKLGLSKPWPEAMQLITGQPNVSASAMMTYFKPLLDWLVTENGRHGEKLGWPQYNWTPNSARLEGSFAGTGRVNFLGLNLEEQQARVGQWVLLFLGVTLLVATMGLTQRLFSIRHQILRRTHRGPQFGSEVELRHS
How it was run: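 Fluorogenic substrate cleavage by 1 nM ACE, read at 320/405 nm after EDTA stop at ~30 min. Reactions at 25 °C, pH 7.5, in HEPES/NaCl/Brij-35 buffer; compounds tested at 12 concentrations in 5% DMSO.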

Carboxypeptidase A = molecular target: T3, Carboxypeptidase A (Bos taurus, UniProt P00730); experiment: Carboxypeptidase A activity assay; format: biochemical; settings: Ki class, compounds tested in 5% DMSO
T3 sequence (P00730 111-419): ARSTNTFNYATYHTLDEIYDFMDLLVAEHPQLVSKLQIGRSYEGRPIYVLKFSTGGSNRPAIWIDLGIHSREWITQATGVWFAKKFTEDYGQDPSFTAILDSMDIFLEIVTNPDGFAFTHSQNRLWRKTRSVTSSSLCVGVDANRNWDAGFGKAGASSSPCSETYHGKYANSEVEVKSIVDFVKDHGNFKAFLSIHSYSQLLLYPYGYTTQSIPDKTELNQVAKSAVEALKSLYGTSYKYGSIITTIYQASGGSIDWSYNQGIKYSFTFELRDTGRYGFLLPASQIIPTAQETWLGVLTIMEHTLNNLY
How it was run: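 Ki obtained by correcting apparent Ki for substrate, Ki=Kiapp/(1+[S]/Km), from 12-concentration series. Enzyme activity read by absorbance at 328 nm with 5% DMSO present, EDTA stop.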

[3] = Ki class, compounds tested in 5% DMSO, 12 concentrations, read-out: Human ACE-2 Activity

T1 sequence (Q9BYF1 18-740 limits assumed): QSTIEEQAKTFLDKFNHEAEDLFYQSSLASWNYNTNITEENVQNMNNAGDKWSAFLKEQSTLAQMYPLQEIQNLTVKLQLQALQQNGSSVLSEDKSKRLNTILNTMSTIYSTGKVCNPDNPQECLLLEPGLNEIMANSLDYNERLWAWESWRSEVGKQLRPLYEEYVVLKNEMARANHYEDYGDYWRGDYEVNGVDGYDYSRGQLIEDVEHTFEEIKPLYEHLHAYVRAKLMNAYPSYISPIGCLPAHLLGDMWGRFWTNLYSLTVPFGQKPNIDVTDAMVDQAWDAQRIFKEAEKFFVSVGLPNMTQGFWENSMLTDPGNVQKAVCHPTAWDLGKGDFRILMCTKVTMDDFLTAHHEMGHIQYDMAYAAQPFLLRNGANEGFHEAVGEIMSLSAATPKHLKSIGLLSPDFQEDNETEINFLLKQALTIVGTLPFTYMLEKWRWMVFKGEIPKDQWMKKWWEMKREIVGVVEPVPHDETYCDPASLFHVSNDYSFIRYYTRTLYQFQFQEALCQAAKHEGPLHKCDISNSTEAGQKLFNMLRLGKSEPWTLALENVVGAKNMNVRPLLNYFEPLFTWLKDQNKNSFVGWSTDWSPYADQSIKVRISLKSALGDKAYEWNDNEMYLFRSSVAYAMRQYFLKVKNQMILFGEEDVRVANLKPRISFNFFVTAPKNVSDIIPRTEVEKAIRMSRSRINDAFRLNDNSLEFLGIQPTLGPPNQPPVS
Chain of ACE-2 (Rattus norvegicus, UniProt Q5EGZ1) (Q5EGZ1 18-805): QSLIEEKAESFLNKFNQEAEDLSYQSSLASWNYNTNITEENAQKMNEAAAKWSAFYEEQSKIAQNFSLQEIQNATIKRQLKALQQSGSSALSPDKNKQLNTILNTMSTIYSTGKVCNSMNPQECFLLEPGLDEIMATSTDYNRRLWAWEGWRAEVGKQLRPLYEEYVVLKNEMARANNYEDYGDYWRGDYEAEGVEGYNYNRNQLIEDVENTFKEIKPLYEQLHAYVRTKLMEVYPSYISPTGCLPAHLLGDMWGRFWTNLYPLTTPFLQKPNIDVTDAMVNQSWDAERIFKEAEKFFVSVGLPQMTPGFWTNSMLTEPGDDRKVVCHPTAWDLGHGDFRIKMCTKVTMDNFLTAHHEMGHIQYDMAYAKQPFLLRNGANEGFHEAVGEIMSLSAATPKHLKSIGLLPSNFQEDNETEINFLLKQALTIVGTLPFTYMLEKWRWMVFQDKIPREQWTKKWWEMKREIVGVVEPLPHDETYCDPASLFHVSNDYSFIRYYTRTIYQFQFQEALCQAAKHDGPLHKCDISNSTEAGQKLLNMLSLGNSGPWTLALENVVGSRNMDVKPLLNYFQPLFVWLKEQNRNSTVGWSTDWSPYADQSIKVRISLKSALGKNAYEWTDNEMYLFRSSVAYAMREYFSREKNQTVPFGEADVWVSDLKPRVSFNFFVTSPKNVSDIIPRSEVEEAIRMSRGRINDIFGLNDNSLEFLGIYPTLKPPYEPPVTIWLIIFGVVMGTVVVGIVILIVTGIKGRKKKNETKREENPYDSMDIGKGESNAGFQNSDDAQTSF

Row | Structure (SMILES) | Ki (ACE-2 [1]; [3]) [µM] | Ki (ACE-2 [2]; 12 concentrations) [µM] | Ki (ACE (Sigma, A2580); 12 concentrations) [µM] | Ki (Carboxypeptidase A; 12 concentrations) [µM] | Ki (ACE-2 [1]; Ki class, compounds tested in 5% DMSO, 12 compound concentrations, Ki=Kiapp/(1+[S]/Km), read-out: Human ACE-2 Activity) [µM] | Ki (ACE-2 [1]; Table 3, very good ACE-2 inhibiting compounds, species not given, read-out: ACE-2 Activity, Ki) [µM] | Ki (ACE-2 [2]; 12 compound concentrations) [µM] | Ki (ACE (Sigma, A2580); 12 compound concentrations) [µM] | Ki (Carboxypeptidase A; 12 compound concentrations) [µM]
1 | CC(C)CC(N[C@H](Cc1cccnc1)C(=O)O)C(=O)O (stereo partly drawn) [CC, 2-(1-Carboxy-2-pyridin-3-yl-ethylamino)-4-methyl-pentanoic acid] | > 0.5 | > 0.5 | > 50 | > 50 | – | – | – | – | –
2 | CC(N[C@H](Cc1c[nH]cn1)C(=O)O)C(=O)O (stereo partly drawn) [BD, 2-(1-carboxy-ethylamino)-3-(1H-imidazol-4-yl)-propionic acid] | > 0.5 | > 0.5 | > 50 | > 50 | – | – | – | – | –
3 | CCCCCC[C@H](N[C@H](Cc1c[nH]cn1)C(=O)O)C(=O)O [CR, 2-[1-Carboxy-2-(1H-imidazol-4-yl)-ethylamino)octanoic acid] | > 0.5 | > 0.5 | > 50 | > 50 | – | – | – | – | –
4 | O=C(O)[C@H](CC#Cc1ccccc1)N[C@@H](CCc1ccccc1)C(=O)O [DS, 2-(1-Carboxy-3-phenyl-propylamino)-5-phenyl-pent-4-ynoic acid] | > 0.5 | 0.1 to 0.5 | > 50 | 10 to 50 | – | – | – | – | –
5 | CCCC(N[C@H](CCc1ccccc1)C(=O)O)C(=O)O (stereo in doubt) [BA, 2-(1-Carboxy-3-phenyl-propylamino)-pentanoicacid] | > 0.5 | > 0.5 | > 50 | > 50 | – | – | – | – | –
6 | O=C(O)[C@H](CC#Cc1ccccn1)N[C@H](CCc1ccccc1)C(=O)O [EB, 2-(1-Carboxy-3-phenyl-propylamino)-5-pyridin-2-yl-pent-4-ynoic acid] | > 0.5 | > 0.5 | > 50 | 10 to 50 | – | – | – | – | –
7 | CC(C)CC(N[C@@H](Cc1cncn1Cc1ccc(C(F)(F)F)cc1)C(=O)O)C(=O)O (stereo partly drawn) [GI, 2-[1-Carboxy-2-[3-(4-trifluoromethyl-benzyl)-imidazol-4-yl]-ethylamino]-4-methyl-pentanoic acid] | < 0.1 | < 0.1 | > 50 | 10 to 50 | – | – | – | – | –
8 | CC(C)CC(N[C@@H](Cc1nc[nH]n1)C(=O)O)C(=O)O (stereo partly drawn) [CD, 2-[1-Caboxy-2-(1H-[1,2,4]triazol-3-yl)-ethylamino]-4-methyl-pentanoic acid] | > 0.5 | 0.1 to 0.5 | > 50 | > 50 | – | – | – | – | –
9 | COC(=O)[C@H](CC(C)C)NCC(=O)c1ccc(-c2ccccc2)cc1 [DH, 2-(2-Biphenyl-4-yl-2-oxo-ethylamino)-4-methyl-pentanoic acid methylester] | > 0.5 | > 0.5 | > 50 | > 50 | – | – | – | – | –
10 | CC(C)C[C@@H](C(=O)O)N(C(=O)c1ccccc1)C(CCc1ccccc1)C(=O)O (stereo in doubt) [AV, 2-[Benzoyl-(1-carboxy-3-phenyl-propyl)-amino]-4-methyl-pentanoic acid] | > 0.5 | > 0.5 | > 50 | 10 to 50 | – | – | – | – | –
11 | O=C(O)[C@H](CC1CC1)N[C@H](CCc1ccccc1)C(=O)O [DE, 2-(1-Carboxy-2-cyclopropyl-ethylamino)-4-phenyl-butync acid] | > 0.5 | > 0.5 | > 50 | > 50 | – | – | – | – | –
12 | CC(C)CC(N[C@@H](Cc1cn(Cc2ccccc2)cn1)C(=O)O)C(=O)O (single isomer, unassigned) [DL, 2-[2-(1-Benzyl-1H-imidazol-4-yl)-1-carboxy-ethylamino]-4-methyl-pentanoic acid] | > 0.5 | > 0.5 | > 50 | > 50 | – | – | – | – | –
13 | CC(C)[C@H](NC(CCc1ccccc1)C(=O)O)C(=O)O (stereo partly drawn) [AS, 2-(1-Carboxy-3-phenyl-propylamino)-3-methyl-butync acid] | > 0.5 | > 0.5 | > 50 | > 50 | – | – | – | – | –
14 | CC(C)CC(N[C@H](Cc1cscn1)C(=O)O)C(=O)O (stereo partly drawn) [CV, 2-(1-Carboxy-2-thiazol-4-yl-ethylamino)-4-methyl-pentanoic acid] | > 0.5 | > 0.5 | > 50 | > 50 | – | – | – | – | –
15 | O=C(O)C(Cc1ccccc1)N[C@@H](Cc1cncn1Cc1ccccc1)C(=O)O (single isomer, unassigned) [GF, 3-(3-Benzyl-3H-imidazol-4-yl)-2-(1-carboxy-2-phenyl-ethylamino)-propionic acid] | > 0.5 | 0.1 to 0.5 | > 50 | < 10 | – | – | – | – | –
16 | CC(C)C[C@H](N[C@H](CCc1ccccc1)C(=O)O)C(=O)O [E, 2-(1-Carboxy-3-phenyl-propylamino)-4-methyl-pentanoic acid] | > 0.5 | > 0.5 | > 50 | > 50 | – | – | – | – | –
17 | CC(C)CC(N[C@@H](Cc1cncn1Cc1ccc(OC(F)(F)F)cc1)C(=O)O)C(=O)O (single isomer, unassigned) [HS, 2-[1-Carboxy-2-[3-(4-trifluoromethoxy-benzyl)-3H-imidazol-4-yl]-ethylamino]-4-methyl-pentanoic acid] | – | – | – | – | < 0.1 | 0.05 to 0.1 | 0.1 to 0.5 | 10 to 50 | 10 to 50
18 | CC(C)CC(N[C@@H](Cc1cncn1Cc1ccc(C(F)(F)F)cc1)C(=O)O)C(=O)O (stereo partly drawn) [GJ, 2-[1-Carboxy-2-[3-(4-trifluoromethyl-benzyl)-3H-imidazol-4-yl]-ethylamino]4-methyl-pentanoic acid] | > 0.5 | > 0.5 | 10 to 50 | 10 to 50 | – | – | – | – | –
19 | CCC(C)C(NC(Cc1cncn1Cc1ccccc1)C(=O)O)C(=O)O (single isomer, unassigned) [GC, 2-[2-(3-Benzyl-3H-imidazol-4-yl)-1-carboxy-ethylamino]-3-methyl-pentanoic acid] | > 0.5 | 0.1 to 0.5 | > 50 | 10 to 50 | – | – | – | – | –
20 | CC(C)CC(N[C@@H](Cc1cncn1COCc1ccccc1)C(=O)O)C(=O)O (stereo partly drawn) [DX, 2-[2-(3-Benzyloxymethyl-3H-imidazol-4-yl)-1-carboxy-ethylamino]-4-methyl-pentanoic acid] | 0.1 to 0.5 | 0.1 to 0.5 | > 50 | > 50 | – | – | – | – | –
21 | CCCC(NC(Cc1c[nH]cn1)C(=O)O)C(=O)O (single isomer, unassigned) [DJ, 2-[1-Carboxy-2-(1H-imidazol-4-yl)-ethylamino)pentanoic acid] | > 0.5 | 0.1 to 0.5 | > 50 | > 50 | – | – | – | – | –
22 | CC(C)C[C@H](N[C@H](CC(=O)O)C(=O)O)C(=O)O [U, 2-(1-Carboxy-3-methyl-butylamino)-succinic acid] | > 0.5 | > 0.5 | > 50 | > 50 | – | – | – | – | –
23 | CC(C)CC(N[C@@H](Cc1cn(Cc2ccccc2)cn1)C(=O)O)C(=O)O (stereo partly drawn) [BV, 2-[2-(1-Benzyl-1H-imidazol-4-yl)-1-carboxy-ethylamino]-4-methyl-pentanoic acid] | > 0.5 | > 0.5 | 10 to 50 | < 10 | – | – | – | – | –
